Entries after “also recorded” stand apart in the source; their conditions may differ. Like-named read-outs stand apart in the source and are kept apart here.
Experiment: TH-2-31, TH-4-55-2, TH-4-67 PK Study (IP, IV, PO; plasma and brain)
Type: in vivo, C57BL/6 mice
Settings: for Cmax brain (nM) / concentration in brain following IV administration (rapid accumulation) / half-life / concentration at 24 h / Cmax: 20 mg/kg; for half-life / concentration at 24 h / Cmax: both sexes, C57BL/6, mouse; for half-life: read-out: in vivo brain t1/2; for brain penetrance / accumulation in brain over plasma, in words: mouse, in vivo; for stability / accumulation in plasma in vivo, in words: up to 24 hours
Experimental: C57BL/6 mice (8-weeks of age and ˜25 g weight) were weighed before injection and divided into groups of two male and female mice per cage. Compound was dissolved in 5% DMSO/95% of 1:1 [(65% v/v of 25% w/v 2-hydroxypropyl-3-cyclodextrin (Cayman Chemical) dissolved in 20% EtOH, 30% v/v Poly(ethylene glycol)-400 (Sigma Aldrich 202398), 5% v/v Tween 80 (Fluka 59924)):MilliQ water] to create a 2 mg/mL solution. The same formulation without compound was used as a vehicle control. The solution was sterilized using a […] Steriflip filter unit (Thomas Scientific 1189Q46). Mice were dosed IP, IV, and PO routes of administration and euthanized by CO2 asphyxiation for 3 min at 0, 1, 2, 4, 8, and 24 h after administration. To ensure that the vehicle was well-tolerated 4 mice were treated with vehicle and euthanized 4 h after administration. ˜0.5 mL of blood was collected via cardiac puncture and immediately put in K3 EDTA microtubes ([…] 41.1504.105) and kept on ice. Organs were harvested, placed in Eppendorf tubes, and frozen on dry ice. Blood samples were centrifuged for 10 min at 2,100×g at 4° C., then plasma was transferred to a clean tube and frozen on dry ice. Organ samples were weighed and placed in hard tissue homogenizing tubes (Omni International 19-628) and a volume of DEPC-treated nuclease-free water (IBI Scientific IB42200) was added to make a 500 mg/mL solution and homogenized using the Omni Bead Ruptor 4 at speed 5 for 30 seconds. Compound was extracted from plasma or organ homogenate by adding 900 μL acetonitrile to 100 μL plasma or organ homogenate. Samples were mixed by vortexing and allowed to extract overnight at 4° C. prior to mixing for at least 5 min by rotating at room temperature, vortexing, and sonicating for at least 30 second prior to centrifugation for 10 min at 4,000×g and 4° C. The supernatant was then transferred to a glass vial and analyzed by UPLC-MS described below. The concentration of each analog was determined against a standard curve with a nonlinear fit and the data plot in GraphPad Prism 9 and fit with a one phase decay.
Samples from animal studies were analyzed via UPLC-MS using a Waters Xevo G2-Xs QTof Mass spectrometer equipped with an Acquity UPLC. Chromatographic separation was carried out at 50° C. on a Acquity UPLC BEH C18 column (1.7 μm, 2.1 mm×50 mm, pore size 130 Å) over a 4.5 min gradient elution. The flowrate was held constant at 0.8 mL/min. Mobile phase A consisted of water and mobile phase B consisted of ACN both containing 0.1% formic acid. After injection, the gradient was held at 50% A for 0.25 min. For the next minute, the gradient was ramped in a linear fashion to 100% B and held at this composition for 0.5 min. The eluent composition returned to the initial condition in 0.01 min and the column was re-equilibrated for 2.74 min before the next injection. Injection volumes were 0.5 μL (TH-2-31 40 mg/kg) and 1 μL for all other conditions. The Xevo G2-Xs was operated in positive electrospray ionization (ESI) mode. A capillary voltage and sampling cone voltage of 0.5 kV and 30 V were used. The source and desolvation temperatures were kept at 120° C. and […], respectively. Nitrogen was used as the desolvation gas with a flowrate of 750 L/hr. The protonated molecular ion of leucine encephalin ([M+H]^+, m/z 556.2771 was used as a lock mass for mass accuracy and reproducibility. Leucine enkephalin was introduced to the lock mass at a concentration of 2 ng/mL (50% ACN containing 0.1% formic acid), and a flow rate of […]. To avoid signal saturation, the signal transmission was attenuated to <10%, based off the signal intensity of the highest standard concentration for the duration of the run. The data was collected over the mass range m/z 50 to 1200 Da with an acquisition time of 0.1 seconds per scan. The retention time for each analog is detailed below. […]

[1] = plasma, all routes of administration, read-out: concentration in plasma 24 hours after administration

Cc1noc(-c2cnc(NC3CCCCC3)c(NC3CCCCC3)c2)n1 [TH-2-31, N^2,N^3-dicyclohexyl-5-(3-methyl-1,2,4-oxadiazol-5-yl)pyridine-2,3-diamine]
Cmax brain/ IC50 (IP): 633 | Cmax brain (nM) (IP): 2,133 nM | Cmax brain/ IC50 (IV): 99,335 | Cmax brain (nM) (IV): 334,759 nM | concentration in brain following IV administration (rapid accumulation) (IV): greater than 300 μM | Cmax brain/ IC50 (PO): 353 | Cmax brain (nM) (PO): 1,190 nM | half-life (brain, ip, R.O.A. IP): > 8 h | half-life (brain, iv, R.O.A. IV): < 1 h | concentration at 24 h (brain, iv, read-out: concentration in brain 24 hours after administration): 10 µM | half-life (brain, po, R.O.A. PO): > 24 h | Cmax (plasma, ip): 50.9 µM | Cmax (plasma, iv): 25.8 µM | Cmax (plasma, po): 2.24 µM | concentration at 24 h [1]: > 0.5 µM | brain penetrance / accumulation in brain over plasma, in words: preferentially accumulate in brain over plasma for all time-points following IV administration

Cc1noc(-c2cnc(NC3CCCC3)c(NC3CCCC3)c2)n1 [TH-4-67, N^2,N^3-dicyclopentyl-5-(3-methyl-1,2,4-oxadiazol-5-yl)pyridine-2,3-diamine]
Cmax brain/ IC50 (IP): 1,389 | time present in plasma at μM concentrations (IP administration): up to 2 hours | Cmax brain (nM) (IP): 2,916 nM | Cmax brain/ IC50 (IV): 24,820 | Cmax brain (nM) (IV): 52,121 nM | concentration in brain following IV administration (rapid accumulation) (IV): > 50 µM | Cmax brain/ IC50 (PO): 740 | time present in plasma at μM concentrations (PO and IV administration): up to 1 hour | Cmax brain (nM) (PO): 1,554 nM | concentration at 24 h (brain, all routes of administration, read-out: concentration in brain 24 hours post administration): < 0.2 µM | half-life (brain, iv, R.O.A. IV): < 1 h | Cmax (plasma, ip): 82.1 µM | Cmax (plasma, iv): 40.6 µM | Cmax (plasma, po): 1.77 µM | concentration at 24 h [1]: < 0.025 µM | stability / accumulation in plasma in vivo, in words: accumulated the least; also recorded: the least stable

CCC(CC)Nc1cc(-c2nc(C)no2)cnc1NC1CCCCC1 [TH-4-55-2, N^2-cyclohexyl-5-(3-methyl-1,2,4-oxadiazol-5-yl)-N^3-(pentan-3-yl)pyridine-2,3-diamine]
Cmax brain/ IC50 (IP): 1,765 | Cmax brain (nM) (IP): 3,936 nM | Cmax brain/ IC50 (IV): 35,567 | Cmax brain (nM) (IV): 79,314 nM | concentration in brain following IV administration (rapid accumulation) (IV): > 75 µM | Cmax brain/ IC50 (PO): 632 | Cmax brain (nM) (PO): 1,410 nM | time present in plasma at μM concentrations (all routes of administration): up to 8 hours | half-life (brain, ip, R.O.A. IP): > 8 h | half-life (brain, iv, R.O.A. IV): < 1 h | concentration at 24 h (brain, other: IP and PO, IP and PO administration, read-out: concentration in brain 24 hours post administration): > 1 µM | half-life (brain, po, R.O.A. PO): > 24 h | Cmax (plasma, ip): 63.8 µM | Cmax (plasma, iv): 32.1 µM | Cmax (plasma, po): 2.93 µM | concentration at 24 h [1]: > 0.8 µM | brain penetrance / accumulation in brain over plasma, in words: preferentially accumulate in brain over plasma for all time-points following IV administration | stability / accumulation in plasma in vivo, in words: accumulated the most
